The values below come from US5461045A, “Fused benzeneoxyacetic acid derivatives” (Ono Pharmaceutical Co., Ltd., priority 1992, dated 1995).

One assay deals with T1, PGI2 receptor (Homo sapiens, UniProt P43119).
T1 construct: 300 μg of platelet plasma membranes; from tissue; host or cells: human platelets (plasma membranes)
Put plainly: Inhibitory activity against 3H-iloprost binding onto PGI2 receptor in human platelet membrane fraction. The following applies: inhibition of 10 nM [3H]-iloprost specific binding; human platelet membranes 300 μg; 24° C., 30 min; pH 7.4. As to the method:
i) Inhibitory activity against ^3 H-iloprost onto PGI2 receptor in human platelet membrane fraction The binding assay was performed in 200 μl volumes containing 300 μg of platelet plasma membranes. The membranes were added to a buffer composed of 50 mM Tris-HCl (pH 7.4), 15 mM MgCl2, 5 mM EDTA with test compound and 10 nM [^3 H]-iloprost. The membranes were incubated at 24° C. for 30 min. After incubation, 4ml of ice-cold 10 mM Tris-HCl buffer (pH 7.4) was added to the reaction mixture, and filtered through Whatman GF/B glass fiber filter, and washed 4 times with 4 ml of ice-cold 10 mM Tris-HCl buffer (pH 7.4) to separate bound and free [^3 H]-iloprost. After washing, the filter was dried and radioactivity was counted. Non-specific binding was obtained by performing parallel binding experiments in the presence of 10 μM non-labelled iloprost. Specific binding was calculated by subtracting the non-specific binding from the total binding. The inhibitory effect of test compound was calculated from the following equation. The percentage of inhibition (%)=100-(B1 /B0 ×100) B1 : specific [^3 H]-iloprost binding in presence of test compound B0 : specific [^3 H]-iloprost binding in absence of test compound

The test system of assay [1] is Human platelet aggregation. As to the kind of experiment: Inhibitory effect on human platelet aggregation (ADP-induced, platelet-rich plasma). Format: cell-based. The following applies: compound added 1 min prior to ADP (4 μM). As to the method:
| ii) Inhibitory effect on Human platelet aggregation Method of | experiment Platelet-rich plasma was prepared from human blood (5×10^5 platelets/mm^3), and the test compound was added to PRP 1 min prior to the addition of ADP (4 μM). The aggregation was monitored using a platelet aggregometer (NBS HEMA TRACER 601, Niko Bioscience, Japan).

T1 sequence (P43119 whole entry): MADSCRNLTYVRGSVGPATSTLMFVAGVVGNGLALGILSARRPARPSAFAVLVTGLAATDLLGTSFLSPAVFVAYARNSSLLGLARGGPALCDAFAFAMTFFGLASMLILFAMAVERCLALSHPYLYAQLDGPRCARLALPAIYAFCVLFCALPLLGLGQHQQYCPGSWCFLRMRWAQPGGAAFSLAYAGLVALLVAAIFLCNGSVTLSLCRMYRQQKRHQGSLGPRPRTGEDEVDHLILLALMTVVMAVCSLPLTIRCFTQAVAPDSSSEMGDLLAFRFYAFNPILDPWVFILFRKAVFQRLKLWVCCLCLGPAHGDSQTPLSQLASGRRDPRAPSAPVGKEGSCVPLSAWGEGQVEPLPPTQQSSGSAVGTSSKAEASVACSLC

`O=C(O)COc1cccc2c1CCCC2CC=NOC(c1ccccc1)c1ccccc1` (stereo not drawn) [3(a)] showed an IC50 at PGI2 receptor of 5.4 µM.

At PGI2 receptor, `O=C(O)COc1cccc2c1CCC2CC=NOC(c1ccccc1)c1ccccc1` (stereo not drawn) [3(e)] displayed an IC50 of 3.6 µM.

`CC(CC1CCc2c(cccc2OCC(=O)O)C1)=NOC(c1ccc(F)cc1)c1ccc(F)cc1` (stereo not drawn) [6(e)] registered an IC50 on PGI2 receptor of 0.48 µM. Against the preceding compound, the IC50 is about 7.5-fold lower.

`CC(CC1CCc2c(cccc2OCC(=O)O)C1)=NOC(c1ccccc1)c1ccc([N+](=O)[O-])cc1` (stereo not drawn) [6(f)] displayed an IC50 at PGI2 receptor of 1 µM.

At PGI2 receptor, `CC(CC1CCc2c(cccc2OCC(=O)O)C1)=NOC(c1ccccc1)c1ccncc1` (stereo not drawn) [6(g)] showed an IC50 of 0.7 µM.

For the compound `CC(CC1CCc2c(cccc2OCC(=O)O)C1)=NOC(c1ccccc1)c1cccnc1` (stereo not drawn) [6(h)], the IC50 in assay [1] was 1.1 µM; at PGI2 receptor it was 1.3 µM.

Regarding `CC(CC1CCc2c(cccc2OCC(=O)O)C1)=NOC(c1ccccc1)c1ccccn1` (stereo not drawn) [6(i)], the IC50 on PGI2 receptor was 1.8 µM.

Consider `COc1ccc(C(ON=C(C)CC2CCc3c(cccc3OCC(=O)O)C2)c2ccc(OC)cc2)cc1` (stereo not drawn) [6(j)], for which the IC50 on PGI2 receptor is 1.8 µM. That is a single-digit micromolar value.

On PGI2 receptor, `CC(CC1CCc2c(cccc2OCC(=O)O)C1)=NOC(c1ccccc1)c1ccc(Cl)cc1` (stereo not drawn) [6(k)] returned an IC50 of 0.3 µM.

Compound `CC(CC1CCc2c(cccc2OCC(=O)O)C1)=NOCc1ccccc1` (stereo not drawn) [6(l)] returned an IC50 on PGI2 receptor of 1.4 µM.

In the case of `CCC(CC1CCc2c(cccc2OCC(=O)O)C1)=NOC(c1ccccc1)c1ccccc1` (stereo not drawn) [6(m)], the IC50 in assay [1] is 0.071 µM; on PGI2 receptor, 0.27 µM.

For `CCCC(CC1CCc2c(cccc2OCC(=O)O)C1)=NOC(c1ccccc1)c1ccccc1` (stereo not drawn) [6(n)], the IC50 in assay [1] came to 0.12 µM; on PGI2 receptor, 0.27 µM.

Consider `CC(C)C(CC1CCc2c(cccc2OCC(=O)O)C1)=NOC(c1ccccc1)c1ccccc1` (stereo not drawn) [6(o)], for which the IC50 on PGI2 receptor worked out at 2.3 µM. In other words, the single-digit micromolar range.

At PGI2 receptor, `O=C(O)COc1cccc2c1CCC(CC(=NOC(c1ccccc1)c1ccccc1)c1ccccc1)C2` (stereo not drawn) [6(p)] had an IC50 of 2.8 µM. The IC50 values of the last two compounds are within 1.5-fold of each other.

Consider `CCCCCC(ON=C(C)CC1CCc2c(cccc2OCC(=O)O)C1)c1ccccc1` (stereo not drawn) [6(r)], for which, at PGI2 receptor, the IC50 was 2.7 µM.

`CC(CC1CCc2c(cccc2OCC(=O)O)C1)=NOC(c1ccccc1)C1CCCCC1` (stereo not drawn) [6(s)] had an IC50 on PGI2 receptor of 9.6 µM.

Take `O=C(O)COc1cccc2c1CCC(CC=NOC(c1ccccc1)c1ccccc1)C2` (stereo not drawn) [Example 3, [2-(2-Diphenylmethyloxyiminoethyl)-1,2,3,4-tetrahydro-naphthalen-5-yloxy]acetic acid]: the IC50 in assay [1] was found to be 0.5 µM; at PGI2 receptor it was 0.89 µM.

On PGI2 receptor, `O=C(O)COc1cccc2c1CCC(CCC=NOC(c1ccccc1)c1ccccc1)C2` (stereo not drawn) [Example 4, [2-(3-Diphenylmethyloxyiminopropyl)-1,2,3,4-tetrahydro-naphthalen-5-yloxy]acetic acid] displayed an IC50 of 2.5 µM.

With `CCOC(=O)COc1cccc2c1CCC(CC(C)=NOC(c1ccccc1)c1ccccc1)C2` (stereo not drawn) [Example 5, [2-(2-Diphenylmethyloxyiminopropyl)-1,2,3,4-tetrahydro-naphthalen-5-yloxy]acetic acid ethyl ester], at PGI2 receptor, the IC50 amounted to 7 µM.

`CC(CC1CCc2c(cccc2OCC(=O)O)C1)=NOC(c1ccccc1)c1ccccc1` (stereo not drawn) [Example 6, [2-(2-Diphenylmethyloxyiminopropyl)-1,2,3,4-tetrahydro-naphthalen-5-yloxy]acetic acid]: the IC50 in assay [1] worked out at 0.24 µM; on PGI2 receptor, 0.28 µM.

With `O=C(O)COc1cccc2c1CCC(CCNOC(c1ccccc1)c1ccccc1)C2` (stereo not drawn) [Example 8, [2-(2-Diphenylmethyloxyaminoethyl)-1,2,3,4-tetrahydro-naphthalen-5-yloxy]acetic acid], the IC50 at PGI2 receptor was 4 µM.

`O=C(O)COc1cccc2c1CCCC(C=NOC(c1ccccc1)c1ccccc1)C2` (stereo not drawn) [Example 9]: the IC50 on PGI2 receptor stood at 1.9 µM.

The IC50 is the point on the concentration scale where inhibition reaches its midpoint. Low readings indicate higher potency, high ones lower potency.
